Reference: patent US7485743B2, “Oligomeric ketone compounds” (BTG International Limited, priority 2004, dated 2009)

What was measured:
[1] = Ketogenic effect after oral administration: β-hydroxybutyrate concentrations in rat plasma; assay type: in vivo, rat (male Sprague-Dawley); conditions: 300 mg/kg po; for Maximum increase of plasma concentration of β-hydroxybutyrate: versus vehicle baseline
Procedure: Male Sprague-Dawley rats (weight range 200-250 g) were obtained from Charles River, Margate, Kent. The rats were group housed in polypropylene cages at a temperature of 21 ±4° C. and 55 ±20% humidity and on a standard light/dark cycle. Animals had free access to a standard pelleted rat diet and tap water at all times. Animals were accustomed to these conditions for at least one week before experimentation.
Animals were killed by CO2 and blood (approx, 5 ml) was collected by cardiac puncture at various times after dosing. Blood was collected into EDTA-coated plasma collection tubes (Sarstedt 5 ml K2E tubes) and kept on ice prior to centrifugation. Tubes were centrifuged in an Eppendorf 570R centrifuge at 4° C. for 5 minutes at 2500 rpm (1000 g). Following plasma separation, extreme care was taken to avoid contamination with red blood cells and samples were re-centrifuged as necessary. Plasma samples were initially frozen on dry ice and transferred to a −75° C. freezer until required for analysis.
Sodium DL-β-hydroxybutyrate (H-6501 Lot 111K2618) was obtained from Sigma. A stock solution of β-bydroxybutyrate (40 mM DL racemate equivalent to 20 mM D-isomer) was prepared in 0.9% saline solution, kept at 4° C. and used to generate appropriate dilutions for an assay standard curve.
Commercial clinical assay kits for the determination of D-β-hydroxybutyrate were obtained from Random Laboratories (Antrim, UK). Kits were obtained in two pack sizes (Ranbut RB1007: 10×10 ml and RB1008: 10×50 ml) but were otherwise identical. Each kit contained a standard solution of 1 mM D-β-hydroxybutyrate that was assayed every time to confirm the assay was performing correctly. The kit relies on measuring the appearance of NADH via the activity of β-hydroxybutyrate dehydrogenase measured as an increase of OD340 nm. An alkaline pH is necessary to drive the reaction equilibrium towards the production of NADH and acetoacetate.
The protocol supplied with the Ranbut kits was for a discrete (cuvette-based) spectrophotometric assay, so the protocol was modified for suitability with a 96-well microplate format using blank, flat-bottomed microplates (Greiner PS 655101 Lot 98 35 01). Assays were performed in triplicate using a sample volume of10 μl to each well for the standards and usually 20 μl for plasma samples (though this was varied for some experiments). Standard dilutions and samples were pipetted a single plate at a time and preincubated at 37° C. for 15 minutes in the sample compartment of a Molecular Devices VERSAMAX tunable microplate reader. The appropriate volume of assey reagent was reconstituted, according to instructions, using distilled water and preincubated at 37° C. for 15 minutes using a static water bath. The assay plate was ejected and the reaction started by adding rapidly 250 μl of reagent to each well (avoiding air bubbles). The plate was reloaded, mixed and then the change in OD340 nm followed in kinetic mode with a reading at every 15 seconds for a total of 2 minutes. The reaction rate was then determined from the OD increase over a suitable 1 minute period, after allowing a necessary period for the reaction rate to settle. The rate between 45 seconds and 105 seconds was used as the default measuring period, though occasionally a different period was used as necessary (e.g. if an aberrant reading was obtained at one of these time-points).
For analysis of spectrophotometric rate assays, linear regression analysis to the standard curve was used followed by interpolation of unknown values (GraphPad Prism 3.0) For comparison of treatment groups with vehicle, multiple 2-tailed T-tests were used and p<0.05 was taken to indicate statistical significance.

[2] = Procedure: Control animals received the appropriate vehicle (deionized water at 1 ml/kg) via the same route.

| SMILES | Time at which the maximum increase of plasma β-hydroxybutyrate was observed [1] [min] | Time by which plasma β-hydroxybutyrate returned to control values [1] [h] | Time until which plasma β-hydroxybutyrate plateaued at the maximum level [1] [min] | Level of plasma β-hydroxybutyrate at 1 h ([1]; 1 h after dosing) | Maximum increase of plasma concentration of β-hydroxybutyrate [1] [mM] | Solubility in deionized water and nature of the solution ([2]; deionized water, dosing solution for gavage) | Solubility in water ([2]; isolated product (syrup)) |
| --- | --- | --- | --- | --- | --- | --- | --- |
| C[C@@H](O)CC(=O)[O-].[Na+] [KTX 0101, sodium (R)-3-hydroxybutyrate] | 15 | ≤ 2 | 30 | still significantly (P<0.05) elevated | 0.4 |  |  |
| CC(=O)CCOC(=O)C[C@@H](C)OC(=O)C[C@@H](C)OC(=O)C[C@@H](C)O [KTX 0204, 2-keto-butan-4-ol ester of (R)-3-hydroxybutyrate triolide] | 30 | ≤ 1 |  |  | 0.25 | mostly soluble in deionized water and produced a cloudy and stable solution | water-soluble |
